Values of other authors, collected in US20110130434A1, “MODIFIED RELEASE RAMIPRIL COMPOSITIONS AND USES THEREOF” (Panacea Biotec Ltd., priority 2008, published 2011).

Tests used:
[1] = after oral administration of ramipril
[2] = target: ACE (Homo sapiens, UniProt P12821)
Sequence of ACE (P12821 30-1306, species assumed): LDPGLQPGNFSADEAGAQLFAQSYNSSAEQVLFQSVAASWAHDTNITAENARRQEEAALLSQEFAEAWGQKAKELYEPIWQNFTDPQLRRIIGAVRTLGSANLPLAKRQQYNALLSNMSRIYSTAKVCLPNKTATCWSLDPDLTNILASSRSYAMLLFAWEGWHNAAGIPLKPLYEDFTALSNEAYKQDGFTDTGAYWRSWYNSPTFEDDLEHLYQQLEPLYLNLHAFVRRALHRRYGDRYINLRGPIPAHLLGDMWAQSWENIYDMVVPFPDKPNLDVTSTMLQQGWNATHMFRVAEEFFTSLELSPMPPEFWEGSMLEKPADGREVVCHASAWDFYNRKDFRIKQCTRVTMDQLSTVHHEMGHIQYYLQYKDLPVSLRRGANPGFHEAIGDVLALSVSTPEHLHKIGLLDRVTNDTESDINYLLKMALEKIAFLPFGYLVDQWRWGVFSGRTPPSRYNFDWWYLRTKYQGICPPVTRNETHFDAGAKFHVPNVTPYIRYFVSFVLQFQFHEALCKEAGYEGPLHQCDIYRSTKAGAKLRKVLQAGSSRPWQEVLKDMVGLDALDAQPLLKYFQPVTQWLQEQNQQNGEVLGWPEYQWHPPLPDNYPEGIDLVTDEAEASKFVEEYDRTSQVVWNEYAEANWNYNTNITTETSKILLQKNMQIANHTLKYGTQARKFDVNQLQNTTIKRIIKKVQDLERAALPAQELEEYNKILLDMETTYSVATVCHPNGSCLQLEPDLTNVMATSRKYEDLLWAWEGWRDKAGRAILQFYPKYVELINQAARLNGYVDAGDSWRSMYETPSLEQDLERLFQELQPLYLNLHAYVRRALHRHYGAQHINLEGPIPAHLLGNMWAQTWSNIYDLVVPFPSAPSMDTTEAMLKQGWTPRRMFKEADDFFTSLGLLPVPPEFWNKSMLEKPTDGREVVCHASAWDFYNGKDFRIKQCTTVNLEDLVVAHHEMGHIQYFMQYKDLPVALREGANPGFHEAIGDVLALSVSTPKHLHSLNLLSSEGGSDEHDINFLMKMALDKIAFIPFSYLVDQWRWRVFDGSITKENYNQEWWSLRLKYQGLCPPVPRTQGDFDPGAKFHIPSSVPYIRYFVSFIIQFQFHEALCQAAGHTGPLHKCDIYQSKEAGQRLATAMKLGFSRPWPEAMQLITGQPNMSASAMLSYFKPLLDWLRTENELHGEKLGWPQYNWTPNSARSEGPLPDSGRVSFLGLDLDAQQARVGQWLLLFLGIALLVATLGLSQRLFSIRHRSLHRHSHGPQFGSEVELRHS

C[C@H](N[C@@H](CCc1ccccc1)C(=O)O)C(=O)N1[C@H](C(=O)O)C[C@@H]2CCC[C@@H]21 [ramiprilat]
half life [1]: 13 to 17 h
ACE inhibitory activity relative to ramipril [2]: 6 times
